These results are taken from patent US20160338967A1, “SUSTAINED RELEASE DEPOT FORMULATIONS OF T[…], AND USES THEREOF” (Kineta One, LLC, priority 2013, published 2016).

A short description of data set [1]: In vivo dose response/release of ShK-186 formulated with PLG2A, blood ELISA (Example 5). Set-up: species or system Sprague Dawley rats. The protocol:
In vivo dose response of depot formulations using ShK-186 and ShK-192 with PLG2A. Preparation of depot formulations was performed as follows: 1.0 g of PLG2A was dissolved into 5.0 mL dichloromethane with mechanical stirring until the polymer was completely dissolved. A volume of 500 μL including three levels of ShK-186 (40, 20, and 10 mg/mL final concentration; in a 20 mM sodium phosphate aqueous buffer (pH 6.0) with 140 mM NaCl) was added separately into three separate PLG2A preparations and homogenized for 2 minutes with a 10×195 mm probe (26,000 rpm). The w/o emulsion was then poured into a 100 mL Pyrex® 1395 media bottle charged with 20 mL of 0.5% w/w DSS, and 20 mM phosphate (pH 7.0) water solution. The mixture was homogenized for 5 minutes at the same shear setting (26,000 rpm), with the beaker in thermal contact with melting ice (0° C.). The pH of the aqueous (external) phase was verified and adjusted if necessary to 5.0<pH<7.5.
The formulation was then removed from shear, and stirred overnight at room temperature in a fume hood to allow solvent evaporation. The next morning the suspension was filtered through a 325 mesh screen and stored at room temperature with end over end mixing to avoid settling/clumping. Immediately before use by injection, the formulations were centrifuged utilizing the appropriate volume for 8 min, 4° C. at 2,000 g. The solid particles settled to the bottom, allowing for decanting of the almost clear supernatant, followed by replacement of aqueous solution with an appropriate volume and composition (e.g. PBS), followed by mechanical mixing to resuspend the particles.
Sprague Dawley rats (females, ages 8-16 weeks, n=3) were given a SC injection of 1 mL of the indicated depot formulations. Blood was drawn at various time points and assayed for ShK-186 by ELISA methods.
In a repeat experiment, the time during which blood levels of ShK-186 were monitored was extended.
(An ELISA detects its analyte on a solid surface through an enzyme-linked reagent.)

Data set [2] deals with delayed type hypersensitivity rat model. Put plainly: Delayed type hypersensitivity rat model (ear induration). The class given is in vivo, Lewis rats. Conditions: single injection of PLG depot formulation on day 0, 1,000-40,000 μg/kg; versus daily SC injection in buffer P6N. The protocol: Therapeutic efficacy of ShK-186 and ShK-192 depot formulations in animal models of autoimmune disease including the delayed type hypersensitivity rat model. Lewis rats are vaccinated by SC administration to the base of the tail with 100 μg ovalbumin mixed 1:1 (v/v) in Complete Freund's Adjuvant (CFA) (OVA/CFA, 200 μL volume) on day 0 using a 20 G×1% needle. Delayed-type hypersensitivity (DTH) is elicited in the ear on Day 7 by injection of 20 μg OVA in 10 μL to the pinna of the ear of isoflurane-anesthetized animals using 29 G×1 needles. DTH is evaluated on Days 8 and 9 by measuring the induration of the site of antigen injection with a micrometer (caliper). Control treatments with ShK-186 or ShK-192 include SC injections of ShK-186 or ShK-192 at 100 μg/kg, 10 μg/kg, 3 μg/kg or 1 μg/kg given on day 0-7 (daily from the initial immunization). The control treatments are compared to a single injection of a depot formulation of ShK-186 or ShK-192 using a PLG polymer-based (in one example, PLG2A) sustained formulations at a dose of 1,000 μg/kg, 5,000 μg/kg, 10,000 μg/kg, 20,000 μg/kg, or 40,000 μg/kg given on day 0 (time of immunization).

In data set [3] the test system is chronic relapsing/remitting autoimmune encephalomyelitis rat model. Put plainly: Chronic relapsing/remitting autoimmune encephalomyelitis rat model (clinical scoring). The class given is in vivo, dark agouti rats. Conditions: single injection of PLG2A depot formulation, 1,000-40,000 μg/kg; prevention and treatment models. The protocol: Therapeutic efficacy of ShK-186 and ShK-192 depot formulations in animal models of autoimmune disease including the chronic relapsing/remitting autoimmune encephalomyelitis rat model. Chronic relapsing/remitting autoimmune encephalomyelitis (CR-EAE) is induced by SC injection of spinal cord homogenate (Bioreclamation, Inc.) and CFA to dark agouti rats (Harlan). Animals typically recover by 30 days after onset of CR-EAE. Rats are treated with different amounts of ShK-186 or ShK-192 (1, 3, 5, 10, and 100 μg/kg) in SC injections daily, every two days, or every three days at different time points prior to and after elicitation of CR-EAE by immunization. These regimens are compared to single injection of depot formulations (ShK-186 or ShK-192 with PLG2A) at doses of 1,000 μg/kg, 5,000 μg/kg, 10,000 μg/kg, 20,000 μg/kg, or 40,000 μg/kg given at the beginning of the experiment (time immunization, prevention model) and after onset of disease, i.e., after a rat has a clinical score of 1 or greater (treatment model).
The efficacy of the treatments is measured by clinical scoring of the severity of CR-EAE in daily and depot formulation-treated rats. […] Subsets of rats are sacrificed at specific time points of the experiment to harvest tissues or to collect whole blood samples.

The nature of data set [4]: In vivo release of ShK-192 formulated with PLG2A, blood ELISA (Example 5). Set-up: species or system Sprague-Dawley rats. Conditions: PLG2A depot formulation, 10,000 μg/kg, single SC injection, n=3 (FIG. 7). The protocol: The next part of this Example was performed to test formulation and in vivo release of ShK-192 over extended time durations. Similar to the methods used for ShK-186, 1.0 g of PLG2A was dissolved into 5.0 mL dichloromethane with mechanical stirring until the polymer was completely dissolved. A volume of 500 μL including a low dose of ShK-192 (10 mg/mL final concentration; in a 20 mM sodium phosphate aqueous buffer (pH 6.0) with 140 mM NaCl) was formulated by homogenizing for 2 minutes with a 10×195 mm probe (26,000 rpm). The w/o emulsion was then transferred into a 100 mL Pyrex® 1395 media bottle charged with 20 mL of 0.5% w/w DSS, 20 mM phosphate (pH 7.0), water solution.
The mixture was held in thermal contact with ice water (0° C.) and homogenized for 5 minutes at 26,000 rpm, with the final pH of the aqueous (external) phase verified and adjusted to 5.0<pH<7.5. The formulation was then removed from homogenization and mechanically stirred overnight at room temperature in a fume hood to permit solvent evaporation. The next day the suspension was first filtered through a 325 mesh screen, then stored at room temperature with end over end mixing to minimize settling/clumping. Immediately before in vivo use, the formulations were centrifuged utilizing the appropriate volume for 8 minutes, at 4° C. at 2,000 g. […]

Regarding “(L-PhosphoTyr)-AEEAc-RSCIDTIPKSRCTAFQCKHSMKYRLSFCRKTCGTC-amide [ShK-186]”, the “shape of in vivo release profiles across doses” value in data set [1] (40,000, 20,000 and 10,000 μg/kg (FIG. 6)) was “geometrically similar, but scaled by the area under the curve to the total dose”. The “duration of sustained in vivo release” value in data set [1] (single SC dose (1 mL) 20,000 μg/kg, repeat experiment (FIG. 8)) was “at least 56 days”. Moreover, the “time blood serum levels are maintained” value in data set [1] (single SC injection, 40,000, 20,000 and 10,000 μg/kg, n=3 (FIG. 6)) is “more than 30 days”. The “reduction of induration (inflammatory response) in DTH” value in data set [2] is given as “significant therapeutic effect”. Moreover, the “reduction in clinical scores of CR-EAE” value in data set [3] was “significant therapeutic effects”.

With “(Para-phosphono-Phe)-AEEAc-RSCIDTIPKSRCTAFQCKHS(Nle)KYRLSFCRKTCGTC-amide [ShK-192]”, in data set [4], the “duration of release from depot formulation” value is on record as “over 30 days” and the “time of maximum concentration” value was about 12 days. Besides, in data set [2], the “reduction of induration (inflammatory response) in DTH” value was “significant therapeutic effect”. Besides, in data set [3], the “reduction in clinical scores of CR-EAE” value is “significant therapeutic effects”.
